According to patent US10259810B2, “N-sulfonylated pyrazolo[3,4-b]pyridin-6-carboxamides and method of use” (AbbVie S.à.r.l., priority 2015, dated 2019):
Where two headings read alike, the source gives them in different places.

What was measured:
Type in all cases: cell-based
CFTR ΔF508 = biological target: T1, CFTR ΔF508 (Homo sapiens, UniProt P13569, DEL508-508); experiment: Chronic TECC assay, primary bronchial epithelial cells of CF patients homozygous for CFTR ΔF508 (corrector, co-corrector and potentiator); details: chronic TECC; for % Activity at 1 μM (AUC**) / % Activity at 1 μM (Ieq*): test compound at 1 μM; for % Activity at 3 μM (AUC**): test compound at 3 μM
T1 construct: bronchial epithelial cells isolated from CF patients homozygous for the CFTR ΔF508 mutation; McGill University; Asterand; University of North Carolina hAEC-CF; host or cells: primary human bronchial epithelial cells from CF patients homozygous for ΔF508, differentiated at air-liquid interface
T1 sequence (P13569 with tags, fused parts or gaps DEL508-508): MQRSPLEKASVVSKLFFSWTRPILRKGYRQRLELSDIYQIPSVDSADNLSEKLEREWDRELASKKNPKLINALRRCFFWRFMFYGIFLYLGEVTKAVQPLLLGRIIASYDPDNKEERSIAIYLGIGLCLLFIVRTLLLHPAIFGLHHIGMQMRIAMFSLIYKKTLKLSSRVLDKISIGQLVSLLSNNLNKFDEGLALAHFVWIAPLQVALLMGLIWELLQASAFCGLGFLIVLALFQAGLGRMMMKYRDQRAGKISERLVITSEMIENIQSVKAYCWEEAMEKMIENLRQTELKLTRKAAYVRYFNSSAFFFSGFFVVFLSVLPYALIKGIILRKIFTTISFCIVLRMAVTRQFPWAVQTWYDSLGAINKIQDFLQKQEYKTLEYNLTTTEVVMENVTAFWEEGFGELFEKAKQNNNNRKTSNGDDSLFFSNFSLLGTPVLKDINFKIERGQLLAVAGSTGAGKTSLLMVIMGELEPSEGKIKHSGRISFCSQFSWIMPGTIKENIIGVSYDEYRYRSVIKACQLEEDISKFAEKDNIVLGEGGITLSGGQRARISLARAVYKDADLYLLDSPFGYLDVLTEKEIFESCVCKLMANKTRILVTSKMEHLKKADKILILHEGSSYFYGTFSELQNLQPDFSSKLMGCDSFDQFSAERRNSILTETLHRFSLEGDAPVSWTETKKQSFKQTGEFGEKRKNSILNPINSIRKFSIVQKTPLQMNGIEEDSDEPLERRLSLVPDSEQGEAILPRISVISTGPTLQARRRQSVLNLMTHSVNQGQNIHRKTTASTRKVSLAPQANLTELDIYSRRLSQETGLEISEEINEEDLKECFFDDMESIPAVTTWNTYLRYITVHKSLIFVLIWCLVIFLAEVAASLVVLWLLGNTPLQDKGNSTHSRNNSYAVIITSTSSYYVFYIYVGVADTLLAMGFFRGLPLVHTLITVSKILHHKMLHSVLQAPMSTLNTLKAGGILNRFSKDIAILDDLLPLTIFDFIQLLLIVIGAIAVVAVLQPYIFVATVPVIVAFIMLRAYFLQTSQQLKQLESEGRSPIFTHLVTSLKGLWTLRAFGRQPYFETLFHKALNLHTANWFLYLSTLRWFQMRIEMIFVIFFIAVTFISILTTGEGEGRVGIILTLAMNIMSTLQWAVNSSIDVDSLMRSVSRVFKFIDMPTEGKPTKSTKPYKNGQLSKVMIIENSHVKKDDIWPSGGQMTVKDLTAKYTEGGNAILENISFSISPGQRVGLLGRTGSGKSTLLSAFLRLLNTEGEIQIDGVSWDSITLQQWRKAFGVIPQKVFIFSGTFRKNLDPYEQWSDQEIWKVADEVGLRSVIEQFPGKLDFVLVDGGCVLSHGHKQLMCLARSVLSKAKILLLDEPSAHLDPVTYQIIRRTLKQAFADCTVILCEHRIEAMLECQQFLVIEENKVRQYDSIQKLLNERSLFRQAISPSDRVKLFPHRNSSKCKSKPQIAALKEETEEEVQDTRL
How it was run: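 Primary bronchial epithelial cells from ΔF508-homozygous CF patients on collagen IV-coated Transwells were chronically treated with test compound plus corrector and potentiator, which were re-added before recording. Ieq was derived from PD and Rt in NaCl-Ringer, pH 7.4, at 37° C, with apical amiloride and bilateral forskolin, recorded every 2 min over 20 min. Ieq increase was normalized to controls, and EC50 was taken from per-well concentrations.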

ΔF508-CFTR [1] = biological target: T2, ΔF508-CFTR (Homo sapiens, UniProt P13569, DEL508-508); experiment: CFTR cell surface levels using HRP-tagged ΔF508-CFTR expressing CFBE cells, intrinsic corrector capacity; parameters: % Activation: concentration or dose not given beside the values; details: HRP-tagged ΔF508-CFTR expressing CFBE41o- cells, compound alone (intrinsic corrector capacity), 20 hours at 33° C.; for EC50: read-out: EC50
T2 construct: host or cells: CFBE41o-, doxycycline-inducible
T2 sequence (P13569 with tags, fused parts or gaps DEL508-508): as above
How it was run: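 Read-out: chemiluminescent HRP activity of ECL4-HRP-tagged ΔF508-CFTR at the cell surface, 15 min substrate in dark. Normalized as 100×(sample−DMSO)/(positive control−DMSO).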

ΔF508-CFTR [2] = biological target: T2, ΔF508-CFTR; experiment: CFTR cell surface levels using HRP-tagged ΔF508-CFTR expressing CFBE cells, in the presence of a co-corrector; details: HRP-tagged ΔF508-CFTR CFBE cells, in the presence of 3 μM co-corrector; for EC50: read-out: EC50
How it was run: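 Chemiluminescent read-out of surface HRP (15 min, dark) after PBS washes. Activity is normalized as 100×(sample−DMSO)/(3 μM co-corrector alone−DMSO).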

[3] = AUC = full area under the curve upon forskolin stimulation, read-out: EC50 (nM) (AUC**)
[4] = AUC = full area under the curve upon forskolin stimulation
[5] = Ieq = calculations based on the maximum current, read-out: EC50 (nM) (Ieq*)
[6] = Ieq = calculations based on the maximum current

SMILES | EC50 (CFTR ΔF508; [3]) | % Activity at 1 μM (AUC**) (CFTR ΔF508; [4]) | % Activation (ΔF508-CFTR [1]) | EC50 (ΔF508-CFTR [1]) | % Activation (ΔF508-CFTR [2]) | EC50 (ΔF508-CFTR [2]) | % Activity at 3 μM (AUC**) (CFTR ΔF508; [4]) | EC50 (CFTR ΔF508; [5]) | % Activity at 1 μM (Ieq*) (CFTR ΔF508; [6])
COC1CCN(C2CCN(c3cc(C(=O)NS(N)(=O)=O)nc4c3c(C3CCC3)nn4-c3ccc(F)cc3)CC2)CC1 [Compound 630, 3-cyclobutyl-1-(4-fluorophenyl)-4-(4-methoxy[1,4'-bipiperidin]-1'-yl)-N-sulfamoyl-1H-pyrazolo[3,4-b]pyridine-6-carboxamide] | 47.1 nM | 125.1944% | 339.64% | 739 nM | 593.42% | 375 nM | – | – | –
CC(C)c1nn(-c2ccc(F)cc2)c2nc(C(=O)NS(C)(=O)=O)cc(N3CCC(C#N)CC3)c12 [Compound 240, 4-(4-cyanopiperidin-1-yl)-1-(4-fluorophenyl)-N-(methanesulfonyl)-3-(propan-2-yl)-1H-pyrazolo[3,4-b]pyridine-6-carboxamide] | 140 nM | 288.71% | 176.67% | 377 nM | 312.8% | 139 nM | – | – | –
CC(C1CCN(c2cc(C(=O)NS(=O)(=O)N(C)C)nc3c2c(C2CCC2)nn3-c2ccc(F)cc2)CC1)N1CCOCC1 (stereo not shown) [Compound 440, 3-cyclobutyl-N-(dimethylsulfamoyl)-1-(4-fluorophenyl)-4-{4-[1-(morpholin-4-yl)ethyl]piperidin-1-yl}-1H-pyrazolo[3,4-b]pyridine-6-carboxamide] | 2.98 nM | 696.6667% | 334.8% | 129 nM | 543.55% | 55.4 nM | – | – | –
CC(C)N(CCOc1cc(C(=O)NS(C)(=O)=O)nc2c1c(C1CCC1)nn2-c1ccccc1)C1COC1 [Compound 325, 3-cyclobutyl-N-(methanesulfonyl)-4-{2-[(oxetan-3-yl)(propan-2-yl)amino]ethoxy}-1-phenyl-1H-pyrazolo[3,4-b]pyridine-6-carboxamide] | – | 317.57% | 151.4% | 335 nM | 309.8% | 153 nM | – | – | –
CN(C)S(=O)(=O)NC(=O)c1cc(N2CCC3C(CCN3C3CCOCC3)C2)c2c(C3CCC3)nn(-c3ccc(F)cc3)c2n1 (stereo not shown) [Compound 628, 3-cyclobutyl-N-(dimethylsulfamoyl)-1-(4-fluorophenyl)-4-[1-(oxan-4-yl)octahydro-5H-pyrrolo[3,2-c]pyridin-5-yl]-1H-pyrazolo[3,4-b]pyridine-6-carboxamide] | 88.4 nM | – | 283.25% | 425 nM | 477.32% | 132 nM | 473.0586% | – | –
COC1CCN(c2cc(C(=O)NS(=O)(=O)C3CCOCC3)nc3c2c(C2CCC2)nn3-c2ccccc2)CC1 [Compound 207, 3-cyclobutyl-4-(4-methoxypiperidin-1-yl)-N-(oxane-4-sulfonyl)-1-phenyl-1H-pyrazolo[3,4-b]pyridine-6-carboxamide] | – | 441.31% | 141.93% | 340 nM | 284.87% | 175 nM | – | – | –
CS(=O)(=O)NC(=O)c1cc(OCCC2CCOCC2)c2c(C3CCC3)nn(-c3ccccc3)c2n1 [Compound 198, 3-cyclobutyl-N-(methanesulfonyl)-4-[2-(oxan-4-yl)ethoxy]-1-phenyl-1H-pyrazolo[3,4-b]pyridine-6-carboxamide] | – | 477.39% | 135.73% | 633 nM | 321.57% | 466 nM | – | – | –
COCCS(=O)(=O)NC(=O)c1cc(N2CCC(COC)CC2)c2c(C(C)C)nn(C3CCCCC3)c2n1 [Compound 251, 1-cyclohexyl-N-(2-methoxyethanesulfonyl)-4-[4-(methoxymethyl)piperidin-1-yl]-3-(propan-2-yl)-1H-pyrazolo[3,4-b]pyridine-6-carboxamide] | – | 336.34% | 273.3% | 634 nM | 488.7% | 367 nM | – | – | –
COC1CCN(c2cc(C(=O)NS(C)(=O)=O)nc3c2c(C(C)C)nn3-c2cccc(C)c2)CC1 [Compound 117, N-(methanesulfonyl)-4-(4-methoxypiperidin-1-yl)-1-(3-methylphenyl)-3-(propan-2-yl)-1H-pyrazolo[3,4-b]pyridine-6-carboxamide] | – | – | 281.88% | 333 nM | 417.92% | 200 nM | – | > 1000 nM | 81%
CN(C)S(=O)(=O)NC(=O)c1cc(N2CCC(N3CCN(C4CC4)CC3)CC2)c2c(C3CCC3)nn(-c3ccc(F)cc3)c2n1 [Compound 583, 3-cyclobutyl-4-[4-(4-cyclopropylpiperazin-1-yl)piperidin-1-yl]-N-(dimethylsulfamoyl)-1-(4-fluorophenyl)-1H-pyrazolo[3,4-b]pyridine-6-carboxamide] | 51.3 nM | 613.3333% | 269.7% | 178 nM | 480.15% | 47.6 nM | – | – | –
COCC1CCN(c2cc(C(=O)NS(=O)(=O)N3CCN(C)CC3)nc3c2c(C2CCC2)nn3-c2ccccc2)CC1 [Compound 400, 3-cyclobutyl-4-[4-(methoxymethyl)piperidin-1-yl]-N-(4-methylpiperazine-1-sulfonyl)-1-phenyl-1H-pyrazolo[3,4-b]pyridine-6-carboxamide] | – | 230% | 180.65% | 163 nM | 365.43% | 157 nM | – | – | –
COCC1CCN(c2cc(C(=O)NS(=O)(=O)CC3COCCO3)nc3c2c(C2CCC2)nn3-c2ccccc2)CC1 (stereo not shown) [Compound 417, 3-cyclobutyl-N-[(1,4-dioxan-2-yl)methanesulfonyl]-4-[4-(methoxymethyl)piperidin-1-yl]-1-phenyl-1H-pyrazolo[3,4-b]pyridine-6-carboxamide] | – | 256.6667% | 307.45% | 190 nM | 539.75% | 91.9 nM | – | – | –
COC1CCN(C2CCN(c3cc(C(=O)NS(=O)(=O)N4CC(OC)C4)nc4c3c(C3CCC3)nn4-c3ccc(F)cc3)CC2)CC1 [Compound 645, 3-cyclobutyl-1-(4-fluorophenyl)-N-(3-methoxyazetidine-1-sulfonyl)-4-(4-methoxy[1,4'-bipiperidin]-1'-yl)-1H-pyrazolo[3,4-b]pyridine-6-carboxamide] | – | – | 194.33% | 331 nM | 384.37% | 244 nM | 246.4648% | – | –
CN(C)C[C@@H](F)C1CCN(c2cc(C(=O)NS(C)(=O)=O)nc3c2c(C2CCC2)nn3-c2ccccc2)CC1 [Compound 219, 3-cyclobutyl-4-{4-[(1S)-2-(dimethylamino)-1-fluoroethyl]piperidin-1-yl}-N-(methanesulfonyl)-1-phenyl-1H-pyrazolo[3,4-b]pyridine-6-carboxamide] | – | 298.20% | 381.1% | 764 nM | 524.4% | 230 nM | – | – | –
COC1CCN(C2CCN(c3cc(C(=O)NS(=O)(=O)N4CCC4)nc4c3c(C3CCC3)nn4-c3ccc(F)cc3)CC2)CC1 [Compound 632, N-(azetidine-1-sulfonyl)-3-cyclobutyl-1-(4-fluorophenyl)-4-(4-methoxy[1,4'-bipiperidin]-1'-yl)-1H-pyrazolo[3,4-b]pyridine-6-carboxamide] | 29.3 nM | – | 252.75% | 304 nM | 466.83% | 154 nM | 237.1158% | – | –
CC1CN(c2ccc(-c3cc(C(=O)NS(C)(=O)=O)nc4c3c(C(C)C)nn4C3CCCCC3)cn2)CC(C)O1 (stereo not shown) [Compound 93, 1-cyclohexyl-4-[6-(2,6-dimethylmorpholin-4-yl)pyridin-3-yl]-N-(methanesulfonyl)-3-(propan-2-yl)-1H-pyrazolo[3,4-b]pyridine-6-carboxamide] | – | – | 224.23% | 501 nM | 456.5% | 270 nM | – | < 30 nM | 220%
CN(C)S(=O)(=O)NC(=O)c1cc(N2CCC(N3CCC(F)CC3)CC2)c2c(C3CCC3)nn(-c3ccc(F)cc3)c2n1 [Compound 525, 3-cyclobutyl-N-(dimethylsulfamoyl)-4-(4-fluoro[1,4'-bipiperidin]-1'-yl)-1-(4-fluorophenyl)-1H-pyrazolo[3,4-b]pyridine-6-carboxamide] | 50.3 nM | 477.2665% | 274.75% | 138 nM | 460.3% | 74 nM | – | – | –
